Key:
human PLK4 = biological target: T1, human PLK4 (Homo sapiens, UniProt O00444); test: PLK4 inhibition assay (indirect ELISA); type: biochemical; conditions: GST-PLK4 4 nM, 15 μM ATP; read-out: IC50 Ranges PLK4
T1 construct: amino terminal GST fusion of residues 1-391 of human PLK4; made in house; host or cells: E. coli
T1 sequence (O00444 1-391): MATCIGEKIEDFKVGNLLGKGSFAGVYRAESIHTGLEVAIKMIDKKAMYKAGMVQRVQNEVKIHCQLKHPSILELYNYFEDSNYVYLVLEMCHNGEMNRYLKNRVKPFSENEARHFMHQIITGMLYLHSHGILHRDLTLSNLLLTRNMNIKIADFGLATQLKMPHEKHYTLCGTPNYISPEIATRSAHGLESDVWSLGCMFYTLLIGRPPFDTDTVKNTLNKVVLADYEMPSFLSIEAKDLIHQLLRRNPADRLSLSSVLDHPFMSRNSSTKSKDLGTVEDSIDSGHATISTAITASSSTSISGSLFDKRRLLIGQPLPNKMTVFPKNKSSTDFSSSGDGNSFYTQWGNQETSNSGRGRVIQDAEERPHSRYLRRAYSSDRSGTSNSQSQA
Procedure, shortened: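 Dephosphorylated GST-tagged human PLK4 (residues 1-391, E. coli), 4 nM, preincubated 15 min with compound, then reacted 30 min with 15 μM ATP on MBP-coated plates (50 mM HEPES pH 7.5, 10 mM MgCl2, 0.01% Brij 35). Phospho-MBP detected by antibody ELISA at 450 nm. Tested at 10 μM or 10-point titrations; IC50 from 4-parameter logistic fit.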

[1] = tested on: MDA-MB-231 breast cancer cells; test: Cell growth inhibition, Sulforhodamine B assay, MDA-MB-231; type: cell-based; conditions: Homo sapiens, 120 h, 5 days culture, SRB assay, read-out: Cell Line GI50 Range MDA-MB-231
human TTK = biological target: T2, human TTK (Homo sapiens, UniProt P33981); test: TTK inhibition assay (indirect ELISA); type: biochemical; conditions: GST-TTK 0.68 nM, 16 μM ATP; read-out: IC50 Ranges TTK
T2 construct: amino terminal GST fusion of full length human TTK; purchased Invitrogen
T2 sequence (P33981 1-857): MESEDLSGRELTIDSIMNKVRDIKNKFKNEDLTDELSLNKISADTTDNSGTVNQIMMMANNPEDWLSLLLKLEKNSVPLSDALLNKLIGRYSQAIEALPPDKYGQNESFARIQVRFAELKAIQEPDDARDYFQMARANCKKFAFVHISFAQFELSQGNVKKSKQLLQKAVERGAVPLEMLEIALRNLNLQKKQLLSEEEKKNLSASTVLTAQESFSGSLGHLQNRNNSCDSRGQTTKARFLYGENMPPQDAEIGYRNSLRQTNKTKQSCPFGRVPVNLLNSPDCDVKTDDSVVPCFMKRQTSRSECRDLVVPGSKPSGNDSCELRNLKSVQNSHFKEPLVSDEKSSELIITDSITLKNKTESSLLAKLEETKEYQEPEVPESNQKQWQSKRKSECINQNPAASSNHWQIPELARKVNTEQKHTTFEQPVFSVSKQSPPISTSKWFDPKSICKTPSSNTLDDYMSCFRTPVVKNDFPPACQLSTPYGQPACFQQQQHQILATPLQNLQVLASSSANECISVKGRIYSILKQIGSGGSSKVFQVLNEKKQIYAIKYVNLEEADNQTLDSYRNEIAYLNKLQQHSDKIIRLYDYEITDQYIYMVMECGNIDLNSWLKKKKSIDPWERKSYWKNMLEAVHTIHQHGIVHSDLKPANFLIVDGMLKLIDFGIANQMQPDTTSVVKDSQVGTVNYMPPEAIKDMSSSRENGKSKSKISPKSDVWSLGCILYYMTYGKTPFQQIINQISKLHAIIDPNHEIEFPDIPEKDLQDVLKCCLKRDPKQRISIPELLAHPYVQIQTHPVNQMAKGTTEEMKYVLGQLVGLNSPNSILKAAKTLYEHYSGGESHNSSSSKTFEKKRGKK

[2] = tested on: HCT116 colon cancer cells; test: Cell growth inhibition, Sulforhodamine B assay, HCT116; type: cell-based; conditions: Homo sapiens, HCT-116, 120 h, 5 days culture, SRB assay, read-out: Cell Line GI50 Range HCT116
[3] = tested on: OVCAR-3 ovarian cancer cells; test: Cell growth inhibition, Sulforhodamine B assay, OVCAR-3; type: cell-based; conditions: Homo sapiens, 120 h, 5 days culture, SRB assay, read-out: Cell Line GI50 Range OVCAR-3
HT29 colon cancer cells = test: Cell growth inhibition, Sulforhodamine B assay, HT29; type: cell-based; conditions: Homo sapiens, HT-29, 120 h, 5 days culture, SRB assay, read-out: Cell Line GI50 Range HT29
[4] = tested on: MDA-MB-468 breast cancer cells; test: Cell growth inhibition, Sulforhodamine B assay, MDA-MB-468; type: cell-based; conditions: Homo sapiens, 120 h, 5 days culture, SRB assay, read-out: Cell Line GI50 Range MDA-MB-468
[5] = tested on: PA-1 ovarian cancer cells; test: Cell growth inhibition, Sulforhodamine B assay, PA-1; type: cell-based; conditions: 120 h, 5 days culture, SRB assay, read-out: Cell Line GI50 Range PA-1
Aurora B = biological target: T3, Aurora B (Homo sapiens, UniProt Q96GD4); test: Aurora B inhibition assay (Z-Lyte); type: biochemical; conditions: 28 nM Aurora B, 128 μM ATP; read-out: IC50 Ranges Aurora B
T3 construct: purchased Invitrogen PV3970
T3 sequence (Q96GD4 whole entry): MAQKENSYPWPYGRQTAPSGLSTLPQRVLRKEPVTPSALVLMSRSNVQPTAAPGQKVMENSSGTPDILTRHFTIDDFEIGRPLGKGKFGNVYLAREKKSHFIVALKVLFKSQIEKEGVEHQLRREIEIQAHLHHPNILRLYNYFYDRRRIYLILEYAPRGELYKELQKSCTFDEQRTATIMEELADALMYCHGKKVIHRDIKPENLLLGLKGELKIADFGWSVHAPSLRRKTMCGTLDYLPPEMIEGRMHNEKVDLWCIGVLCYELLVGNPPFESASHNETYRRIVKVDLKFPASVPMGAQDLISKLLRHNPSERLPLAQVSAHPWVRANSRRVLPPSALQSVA
Protocol: Aurora B inhibition was determined using the Z-Lyte assay kit from Invitrogen. The assay was performed using the recommended manufacturer's instructions with 128 μM ATP and 28 nM Aurora B (Invitrogen cat #PV3970). The % inhibition values were determined according to the manufacturer's directions and IC50 values were obtained using a non-linear 4 point logistic curve fit (XLfit4, IDBS)

IC50 (human PLK4) | GI50 [1] | IC50 (human TTK) | GI50 [2] | GI50 [3] | GI50 (HT29 colon cancer cells) | GI50 [4] | GI50 [5] | IC50 (Aurora B) | Compound
≤ 5 µM | – | ≤ 5 µM | ≤ 5 µM | ≤ 5 µM | ≤ 5 µM | ≤ 5 µM | ≤ 5 µM | ≤ 5 µM | CN1CCC(Oc2ccc(-c3n[nH]c4ccc(C(=O)NC(c5ccsc5)C5CCC5)cc34)cc2)CC1 (stereo not shown) [Example A121]
≤ 5 µM | – | ≤ 5 µM | ≤ 5 µM | ≤ 5 µM | – | ≤ 5 µM | ≤ 5 µM | ≤ 5 µM | CC[C@@H](NC(=O)c1ccc2[nH]nc(-c3ccc(OC4CCN(C5COC5)CC4)cc3)c2c1)c1ccccc1Cl [Example A192, (R)—N-(1-(2-chlorophenyl)propyl)-3-(4-((1-(oxetan-3-yl)piperidin-4-yl)oxy)phenyl)-1H-indazole-5-carboxamide]
≤ 5 µM | ≤ 5 µM | ≤ 5 µM | ≤ 5 µM | ≤ 5 µM | – | ≤ 5 µM | ≤ 5 µM | ≤ 5 µM | CN1CCC(Oc2ccc(-c3n[nH]c4ccc(C(=O)NC(c5ccccn5)C5CC5)cc34)cc2Cl)CC1 (stereo not shown) [Example A198, 3-(3-chloro-4-((1-methylpiperidin-4-yl)oxy)phenyl)-N-(cyclopropyl(pyridin-2-yl)methyl)-1H-indazole-5-carboxamide]
≤ 5 µM | ≤ 5 µM | ≤ 5 µM | ≤ 5 µM | ≤ 5 µM | – | ≤ 5 µM | ≤ 5 µM | ≤ 5 µM | CN1CCC(Oc2ccc(-c3n[nH]c4ccc(C(=O)NC(c5ccccc5Cl)C5CCCC5)cc34)cc2)CC1 (stereo not shown) [Example A199, N-((2-chlorophenyl)(cyclopentyl)methyl)-3-(4-((1-methylpiperidin-4-yl)oxy)phenyl)-1H-indazole-5-carboxamide]

Continued, molecule first:

Compound | IC50 (human PLK4) | GI50 [1] | IC50 (human TTK) | GI50 [2] | GI50 [3] | GI50 (HT29 colon cancer cells) | GI50 [4] | GI50 [5] | IC50 (Aurora B)
CO[C@@H](C(=O)Nc1ccc2[nH]nc(-c3ccc(O[C@@H]4CCN(C)C[C@@H]4F)cc3)c2c1)c1ccccc1 (relative stereo) [Example A135, (R)—N-(3-(4-(((3S,4R)-3-fluoro-1-methylpiperidin-4-yl)oxy)phenyl)-1H-indazol-5-yl)-2-methoxy-2-phenylacetamide] | ≤ 5 µM | ≤ 5 µM | ≤ 5 µM | ≤ 5 µM | ≤ 5 µM | ≤ 5 µM | ≤ 5 µM | ≤ 5 µM | –
O=C(Nc1ccc2[nH]nc(-c3ccc(OC4CCN(CCF)CC4)cc3)c2c1)C(c1ccsc1)N1CCCC1 (stereo not shown) [Example A102, N-(3-(4-((1-(2-fluoroethyl)piperidin-4-yl)oxy)phenyl)-1H-indazol-5-yl)-2-(pyrrolidin-1-yl)-2-(thiophen-3-yl)acetamide] | ≤ 5 µM | – | ≤ 5 µM | ≤ 5 µM | 5 to 20 µM | ≤ 5 µM | ≤ 5 µM | ≤ 5 µM | ≤ 5 µM
CCc1cccc(CC)c1NC(=O)Nc1ccc2[nH]nc(-c3ccc4c(c3)CN(C)CCO4)c2c1 [Example A114, 1-(2,6-diethylphenyl)-3-(3-(4-methyl-2,3,4,5-tetrahydrobenzo[f][1,4]oxazepin-7-yl)-1H-indazol-5-yl)urea] | ≤ 5 µM | ≤ 5 µM | ≤ 5 µM | ≤ 5 µM | 5 to 20 µM | ≤ 5 µM | ≤ 5 µM | ≤ 5 µM | –
CC(C)(C)OC(=O)N1CCC(Oc2ccc(-c3n[nH]c4ccc(NC(=O)C(c5ccsc5)N5CCCC5)cc34)cc2)CC1 (stereo not shown) [Example A115, tert-butyl 4-(4-(5-(2-(pyrrolidin-1-yl)-2-(thiophen-3-yl)acetamido)-1H-indazol-3-yl)phenoxy)piperidine-1-carboxylate] | ≤ 5 µM | ≤ 5 µM | ≤ 5 µM | ≤ 5 µM | ≤ 5 µM | ≤ 5 µM | ≤ 5 µM | ≤ 5 µM | –
COCCN1CCC(Oc2ccc(-c3n[nH]c4ccc(C(=O)N[C@H](C)c5ccccc5F)cc34)cc2)CC1 [Example A129, (R)—N-(1-(2-fluorophenyl)ethyl)-3-(4-((1-(2-methoxyethyl)piperidin-4-yl)oxy)phenyl)-1H-indazole-5-carboxamide] | ≤ 5 µM | ≤ 5 µM | ≤ 5 µM | ≤ 5 µM | 5 to 20 µM | ≤ 5 µM | ≤ 5 µM | ≤ 5 µM | –
O=C(NC(c1ccccc1)C1CC1)c1ccc2[nH]nc(-c3ccc(OCCN4CCOCC4)cc3)c2c1 (stereo not shown) [Example A140, N-(cyclopropyl(phenyl)methyl)-3-(4-(2-morpholinoethoxy)phenyl)-1H-indazole-5-carboxamide] | ≤ 5 µM | ≤ 5 µM | ≤ 5 µM | ≤ 5 µM | ≤ 5 µM | ≤ 5 µM | ≤ 5 µM | ≤ 5 µM | –
Cc1ccccc1C(NC(=O)c1ccc2[nH]nc(-c3ccc(N4CC(O)C4)cc3)c2c1)C1CC1 (stereo not shown) [Example A141, N-(Cyclopropyl(o-tolyl)methyl)-3-(4-(3-hydroxyazetidin-1-yl)phenyl)-1H-indazole-5-carboxamide] | ≤ 5 µM | ≤ 5 µM | ≤ 5 µM | ≤ 5 µM | ≤ 5 µM | ≤ 5 µM | ≤ 5 µM | ≤ 5 µM | –
COc1cc(-c2n[nH]c3ccc(C(=O)NC(c4ccccc4)C4CC4)cc23)ccc1OC1CCN(C2COC2)CC1 (stereo not shown) [Example A194, N-(cyclopropyl(phenyl)methyl)-3-(3-methoxy-4-((1-(oxetan-3-yl)piperidin-4-yl)oxy)phenyl)-1H-indazole-5-carboxamide] | ≤ 5 µM | ≤ 5 µM | ≤ 5 µM | ≤ 5 µM | ≤ 5 µM | – | ≤ 5 µM | ≤ 5 µM | ≤ 5 µM
CN1CCC(Oc2ccc(-c3n[nH]c4ccc(C(=O)N[C@H](CCO)c5ccccc5)cc34)cc2Cl)CC1 [Example A202, (R)-3-(3-chloro-4-((1-methylpiperidin-4-yl)oxy)phenyl)-N-(3-hydroxy-1-phenylpropyl)-1H-indazole-5-carboxamide] | ≤ 5 µM | ≤ 5 µM | ≤ 5 µM | ≤ 5 µM | ≤ 5 µM | – | ≤ 5 µM | ≤ 5 µM | ≤ 5 µM

From US20140051679A1, “KINASE INHIBITORS AND METHOD OF TREATING CANCER WITH SAME” (UNIVERISTY HEALTH NETWORKS, priority 2011, published 2014)
